Experimental data: US7164002B2, “FVIIa antagonists” (Genentech, Inc., priority 2002, dated 2007)

Assays:
TF-FVIIa [1] = target: T1, TF-FVIIa (Homo sapiens, UniProt P08709); details: literature, cited from earlier work; for maximal extent of inhibition of the amidolytic activity: saturating concentrations of peptide
Target sequence in this assay (P13726 33-251 partner limits assumed, one chain of several): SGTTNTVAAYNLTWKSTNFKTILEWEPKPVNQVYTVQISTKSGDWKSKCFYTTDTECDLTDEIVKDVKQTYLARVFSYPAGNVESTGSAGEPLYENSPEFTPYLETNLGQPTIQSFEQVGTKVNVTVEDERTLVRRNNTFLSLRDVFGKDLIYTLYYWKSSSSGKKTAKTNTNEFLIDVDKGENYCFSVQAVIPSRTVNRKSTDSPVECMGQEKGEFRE

TF-FVIIa [2] = target: T1, TF-FVIIa; details: literature, cited from earlier work; for maximal inhibition of FX activation: saturating concentrations of peptide
Target sequence in this assay (P13726 33-275 partner limits assumed, one chain of several): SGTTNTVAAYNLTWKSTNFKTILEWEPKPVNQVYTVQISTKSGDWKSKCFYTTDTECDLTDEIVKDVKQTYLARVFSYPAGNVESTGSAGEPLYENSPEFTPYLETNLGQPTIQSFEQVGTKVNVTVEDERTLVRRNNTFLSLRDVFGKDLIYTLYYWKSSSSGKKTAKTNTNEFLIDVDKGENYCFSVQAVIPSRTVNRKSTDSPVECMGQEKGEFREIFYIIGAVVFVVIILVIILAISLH

FVIIa = target: T2, FVIIa (Homo sapiens, UniProt P08709); details: pH 7.2; read-out: binding constant Kd to FVIIa; cited from earlier work
T2 sequence (P08709 213-466 limits assumed): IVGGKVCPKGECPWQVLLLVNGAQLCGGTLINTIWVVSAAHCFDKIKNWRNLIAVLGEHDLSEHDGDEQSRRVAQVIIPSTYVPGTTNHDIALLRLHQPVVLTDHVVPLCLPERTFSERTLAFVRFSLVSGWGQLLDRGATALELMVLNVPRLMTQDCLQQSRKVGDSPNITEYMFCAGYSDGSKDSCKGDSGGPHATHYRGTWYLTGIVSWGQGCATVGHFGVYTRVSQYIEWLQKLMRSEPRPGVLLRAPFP
T2 sequence (P08709 61-212 limits assumed): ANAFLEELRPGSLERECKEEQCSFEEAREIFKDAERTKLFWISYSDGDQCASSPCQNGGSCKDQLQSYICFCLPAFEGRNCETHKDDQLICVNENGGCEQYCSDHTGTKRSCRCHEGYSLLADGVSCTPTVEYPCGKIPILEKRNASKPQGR

[3] = system: citrated pooled normal human plasma; test: Prothrombin time (PT) clotting assay initiated by TF and Ca2+; type: biochemical; details: Innovin
Protocol: The prothrombin time (PT) assay was performed in citrated pooled normal human plasma as described previously (Dennis, M. S., et al., (2000) Nature, 404: 465–470). Clotting times were determined using an ACL 300 Coagulation Analyzer (Coulter Corp., Miami, Fla.) using Innovin (human relipidated TF and Ca2+) from Dade International Inc. to initiate the assay.

TF-FVIIa [4] = target: T1, TF-FVIIa; test: Inhibition of TF-FVIIa catalyzed activation of FX; type: biochemical; details: saturating peptide
Target sequence in this assay (P13726 33-275 partner limits assumed, one chain of several): as the sequence (P13726 33-275 partner limits assumed, one chain of several) above
Protocol: Inhibition of FX activation by TF-VIIa was determined with 300 pM relipidated TF1-243, 20 pM FVIIa , and 165 nM FX at 25° C. as a function of peptide concentration essentially as described (Dennis, M. S., et al., (2000) Nature, 404: 465–470; Kelley, R. F., et al., (1997) Blood, 89: 3219–3227). TF was incorporated into phospholipid vesicles and quantified as previously described (Kelley, R. F., et al., (1997) Blood, 89: 3219–3227). The linear rates of FXa generation can be expressed as mOD405/min/min or as fractional activities (vi/v0).

| Substance | maximal extent of inhibition of the amidolytic activity (TF-FVIIa [1]) [%] | IC50 for inhibition of activation of FX to FXa by TF-FVIIa (TF-FVIIa [2]) | maximal inhibition of FX activation (TF-FVIIa [2]) [%] | Kd (FVIIa) [nM] | inhibition of amidolytic activity (in words) (TF-FVIIa [1]) | fold prolongation of the clotting time [3] [fold] | extent of inhibition of FX activation upon saturation (TF-FVIIa [4]) [%] |
| --- | --- | --- | --- | --- | --- | --- | --- |
| EEWEVACWTWETCER [Peptide E-76] | 50 | nanomolar range | 90 |  |  |  |  |
| EEWEVLCWTWETCER [Peptide A-183] | 32 | nanomolar range | 78 | 2.8 | potent but incomplete inhibition | 1.6 |  |
| Z-GGSGGDDDDK-EEWEVLCWTWETCER [Z-A-183] |  |  |  |  |  |  | 80 |
